Earlier results in US20140194454A1, “COMBINATIONS OF TROSPIUM AND SALIVARY STIMULANTS FOR THE TREATMENT OF OVERACTIVE BLADDER” (TheraVida, Inc., priority 2011, published 2014).

Conditions: 5 mg of pilocarpine

CC[C@@H]1C(=O)OC[C@@H]1Cc1cncn1C [pilocarpine]
time of maximum saliva output after administration: about 30 minutes
